Assay results as given in US20060241114A1, “Derivatives of azasugars as anticancer agents” (priority 2003, published 2006).

Legend:
[1] = system: DU145 (prostate carcinoma); test: In vitro growth inhibition screen (sulphorhodamine B), DU145; format: cell-based, human; conditions: DU145 cells, incubated for 48 hours, sulphorhodamine B dye; read-out: GI50 (concentration which inhibits the cell growth by 50%), DU145 Prostate carcinoma
Description: (§1) Each agent was tested over a broad concentration range (ten-fold dilutions starting from ≧100 μM to 10 nM) against 6 human cancer cell lines which was comprised of different tumor types. These are DU145 (prostate carcinoma), HT29 (colorectal adenocarcinoma), LOX (melanoma), MCF7 (breast adenocarcinoma), MCF7ADR (adriamycin resistant breast adenocarcinoma), and U251 (human glioblastoma). A standard compound doxorubicin was tested in each assay as a positive control. The cells were maintained in growing condition in RPMI 1640 medium containing 10% fetal calf serum and incubated at 37° C. under 5% CO2 atmosphere. All cell lines were inoculated onto a series of standard 96-well microtitre plate on day zero, followed by twenty four-hour incubation in the absence of test compound. The inoculation densities in the screen were as per Monk et al., (1991) J. Natl. Cancer Inst., 83, 757-766. All NCEs were dissolved in DMSO and diluted further in culture medium. An aliquot of each dilution was added to the growing cells in 96 well plates and incubated for 48 hours. After incubation, the assay was terminated by adding 50 μL of trichloroacetic acid (TCA) and incubating at 4° C. for 30 min. The precipitated cells were washed and stained with sulphorhodamine B dye for 30 min and the excess dye was washed off with acetic acid. Adsorbed dye was solubilised in Tris base (alkaline pH) and quantitated by measuring the OD at […] in ELISA READER. GI50 (concentration which inhibits the cell growth by 50%) was calculated according to Boyd and Paull, (1995) Drug Dev. Res., 34, 91-109.

[2] = system: U251 (human glioblastoma); test: In vitro growth inhibition screen (sulphorhodamine B), U251; format: cell-based; conditions: U251 cells, incubated for 48 hours, sulphorhodamine B dye; read-out: GI50 (concentration which inhibits the cell growth by 50%), U251 Human glioblastoma astrocytoma
Description: as §1

[3] = system: HT29 (colorectal adenocarcinoma); test: In vitro growth inhibition screen (sulphorhodamine B), HT29; format: cell-based, human; conditions: HT29 cells, incubated for 48 hours, sulphorhodamine B dye; read-out: GI50 (concentration which inhibits the cell growth by 50%), HT29 Colorectal adenocarcinoma
Description: as §1

LOX (melanoma) = test: In vitro growth inhibition screen (sulphorhodamine B), LOX; format: cell-based, human; conditions: LOX cells, incubated for 48 hours, sulphorhodamine B dye; read-out: GI50 (concentration which inhibits the cell growth by 50%), LOX Melanoma
Description: as §1

[4] = system: MCF7ADR (adriamycin resistant breast adenocarcinoma); test: In vitro growth inhibition screen (sulphorhodamine B), MCF7ADR; format: cell-based, human; conditions: MCF7ADR cells, incubated for 48 hours, sulphorhodamine B dye; read-out: GI50 (concentration which inhibits the cell growth by 50%), MCF7ADR Adriamycin Resistant Breast adenocarcinoma
Description: as §1

[5] = system: MCF7 (breast adenocarcinoma); test: In vitro growth inhibition screen (sulphorhodamine B), MCF7; format: cell-based, human; conditions: MCF7 cells, incubated for 48 hours, sulphorhodamine B dye; read-out: GI50 (concentration which inhibits the cell growth by 50%), MCF7 Breast adenocarcinoma
Description: as §1

| Molecule | GI50 [1] [µM] | GI50 [2] [µM] | GI50 [3] [µM] | GI50 (LOX (melanoma)) [µM] | GI50 [4] [µM] | GI50 [5] [µM] |
| --- | --- | --- | --- | --- | --- | --- |
| 2,3,4-Tri-O-benzyl-6-(trifluoromethylacetamido)-N-propyl-D-gluco-δ-lactam [Compound No. 51] | 43.7 | 10.3 | 6.8 | 13.6 | 16 | 9.9 |
| 2,3,4-Tri-O-benzyl-6-N-[3-{2-iminocarbonyl aminoethyl)-indolyl]-N-propyl-D-gluco-δ-lactam [Compound No. 78] | 57.3 | 4.3 | 33.6 | 45.1 | 29.8 | 9.2 |
| 2,3,4-Tri-O-benzyl-6-N-{[isopropyl]aminocarbonylamino}-1,5-dideoxy-1,5-imino-N-propyl glucitol [Compound No. 38] | 98.4 | > 380 | 35 | 281 | > 380 | > 380 |
| 6-N-{2-[1,5-Dideoxy-1,5-imino-glucit-6-ol]acetyl}-N-propyl-D-gluco-δ-lactam [Compound No. 67] | 81.6 | 91.5 | 106 | 67.6 | 75.4 | 107 |
| C=CCN1C(=O)[C@H](OCc2ccccc2)[C@@H](OCc2ccccc2)[C@H](OCc2ccccc2)[C@H]1COS(=O)(=O)c1ccc(C)cc1 [Compound No. 1, N-Allyl-6-O-(p-toluenesulphonyl)-2,3,4-tri-O-benzyl-D-gluco-δ-lactam] | 364 | > 624 | 203 | > 624 | > 624 | 378 |
| CCCN1C(=O)[C@H](OCc2ccccc2)[C@@H](OCc2ccccc2)[C@H](OCc2ccccc2)[C@H]1CNC(=S)Nc1ccc2ccccc2c1 [Compound No. 2, 2,3,4-Tri-O-benzyl-6-N-{[2-naphthyl]aminothiocarbonylamino}-N-propyl-D-gluco-δ-lactam] | 151 | 172 | 137 | 40.9 | 229 | 175 |
| CCCN1C(=O)C(OCc2ccccc2)C(OCc2ccccc2)C(OCc2ccccc2)C1CNC(=O)Nc1ccc(Cl)cc1 [Compound No. 3, 2,3,4-Tri-O-benzyl-6-N-{[4-chlorophenyl]aminocarbonylamino}-N-propyl-D-gluco-δ-lactam] | 2 | 1.1 | 6.1 | 2.1 | 8.2 | 0.8 |
| CCCN1C(=O)C(OCc2ccccc2)C(OCc2ccccc2)C(OCc2ccccc2)C1CNC(=O)Nc1ccc(OC)cc1 [Compound No. 4, 2,3,4-Tri-O-benzyl-6-N-{[p-methoxyphenyl]aminocarbonylamino}-N-propyl-D-gluco-δ-lactam] | 116 | 16.8 | 49.4 | 112 | 115 | 13.6 |
| CCCN1C(=O)C(OCc2ccccc2)C(OCc2ccccc2)C(OCc2ccccc2)C1CNC(=O)Nc1ccc([N+](=O)[O-])cc1 [Compound No. 5, 2,3,4-Tri-O-benzyl-6-N-{[p-nitrophenyl]aminocarbonylamino}-N-propyl-D-gluco-δ-lactam] | 29.6 | 46.9 | 14.6 | 10.4 | 33.9 | 11.4 |
| CCCN1C(=O)[C@H](OCc2ccccc2)[C@@H](OCc2ccccc2)[C@H](OCc2ccccc2)[C@H]1CNC(=O)Nc1ccc(C)cc1 [Compound No. 6, 2,3,4-Tri-O-benzyl-6-N-{[p-tolyl]aminocarbonylamino}-N-propyl-D-gluco-δ-lactam] | 50.1 | 82.3 | 47.2 | 67.4 | 110 | 433 |
